The values that follow are results of earlier work, collected in patent US7794750B2, “Controlled-release formulations, method of manufacture, and use thereof” (Mutual Pharmaceutical Company, Inc., priority 2008, dated 2010).

For this data set the following is noted: 25° C., pH of about 7.

Where a name gives a salt, the structure may show the parent alone.

On to `OCCOCCN1CCN(C2=Nc3ccccc3Sc3ccccc32)CC1` [Quetiapine fumarate, quetiapine fumarate], for which the aqueous solubility (usually the concentration that dissolves in the medium under given conditions) is 3290 µg/mL.
